Patent US20070129334A1, “Orally Active Purine-Based Inhibitors of Heat Shock Protein 90” (CONFORMA THERAPEUTICS CORPORATION, priority 2001, published 2007)
Read-outs that look alike come from different tables or passages of the source.

How the values were obtained:
[1] = Solubility in simulated gastric fluid, simulated intestinal fluid and serum; assay type: physicochemical
in vivo = details: mouse, po, 100 mg/kg
[2] = system: HER-2 receptor (Hsp90 client) in MCF-7 cells; experiment: HER-2 degradation assay (MCF-7 cells, 16 h, phycoerythrin-labeled antibody and flow cytometry); assay type: cell-based, human
[3] = mouse, in vivo, po, 100 mg/kg
MCF-7 xenograft tumors = details: cited from earlier work
[4] = system: MCF-7 breast cancer cells; experiment: MTS cell growth inhibition assay; assay type: cell-based, human; details: MCF-7 cells, 5 days; SEM 9-21% of the mean
[5] = Pharmacokinetics in Balb/C mice (IV 10 mg/kg, PO 100 mg/kg)
[6] = system: N87 xenograft model of human stomach cancer; details: oral 200 mg/kg/day, once daily, 5 days/week
[7] = system: Hsp90 clients in N87 stomach cancer xenograft tumors; experiment: Pharmacodynamic effect in N87 xenograft model; assay type: in vivo, mice
Description: The pharmacodynamic effect of amine 126 was examined in a N87 xenograft model (FIG. 1b), N87 being a stomach cancer cell line expressing high HER-2 levels. Mice were administered 126.H3PO4 orally at two different regimens (2×100 or 2×200 mg/kg/day) for three days, and were sacrificed 24 h after the last dosing.

[8] = oral 2×100 mg/kg/day for three days

CC(=O)OCCCn1c(Sc2nc3cccc(Cl)c3s2)nc2c(N)ncnc21 [Compound 242]
Serum (PH 7.4) ([1]; solubility in serum, PH 7.4): 9 µg/mL
Gastric (PH 2.0) ([1]; solubility in simulated gastric fluid, PH 2.0): 220 µg/mL
Intestinal (PH 6.5) ([1]; solubility in simulated intestinal fluid, PH 6.5): 16 µg/mL
AUC (in vivo): 1040 ng·h/mL
IC50 ([2]; Homo sapiens, MCF7, read-out: HER-2): 90 nM
plasma concentrations (in words) [3]: significantly lower than 264

C#CCCCn1c(Cc2cc(OC)c(OC)c(OC)c2Cl)nc2c(N)nc(F)nc21 [PU24FCl]
tumor growth (MCF-7 xenograft tumors; intraperitoneally 200 mg/kg): significantly repressed tumor growth
pharmacodynamic response in tumors (MCF-7 xenograft tumors; intraperitoneally 100-300 mg/kg, DMSO/EtOH/phosphate-buffered saline 1:1:1): down-regulation of HER-2 and Raf-1
IC50 [4]: 1200 nM
aqueous solubility (in words) (Water solubility): too insoluble to be effectively formulated and delivered orally

CCCCn1c(Cc2cc(OC)ccc2Cl)nc2c(N)ncnc21 [Compound 311, 9-Butyl-8-(2-chloro-5-methoxy-benzyl)-9H-purin-6-ylamine]
melting point: 138 to 139 °C
IC50 ([2]; Homo sapiens, MCF7, MCF-7 cells, 16 h, average of at least three observations, read-out: HER-2 IC50): 20000 nM

COc1ccc(I)c(Sc2nc3c(N)ncnc3n2CCCNC(C)C)c1.O=P(O)(O)O [Compound 126, 8-(2-Iodo-5-methoxy-phenylsulfanyl)-9-(3-isopropylamino-propyl)-9H-purin-6-ylamine H3PO4 salt]
IV Parameters T1/2 ([5]; IV 10 mg/kg, H3PO4 salts): 4.2 h
IV Parameters VSS ([5]; IV 10 mg/kg, H3PO4 salts): 22 L/kg
IV Parameters Cl ([5]; IV 10 mg/kg, H3PO4 salts in phosphatidylcholine/water dispersion): 62 mL/min/kg
PO Parameters T1/2 ([5]; PO 100 mg/kg, H3PO4 salts): 1.5 h
PO Parameters Tmax ([5]; PO 100 mg/kg, H3PO4 salts): 30 min
PO Parameters Cmax ([5]; PO 100 mg/kg, H3PO4 salts, plasma): 4.7 µg/mL
PO Parameters AUC ([5]; PO 100 mg/kg, over 4 h, H3PO4 salts): 450 µg·min/mL
IC50 [4]: 600 nM
tumor growth inhibition ([6]; N87): Tumor growth inhibition was observed
mortality and weight loss ([6]; mice): neither mortality nor weight loss was observed
IC50 ([2]; MCF-7 cells, 16 h, SEM 6-11% of the mean, read-out: HER-2 IC50): 180 nM
degradation of HER-2, pHER-2, pRaf in tumor [7, 8]: little or no degradation
degrading Akt, pAkt, Raf-1, pMEK, cdk6, pRb in tumor [7, 8]: still effective
levels of HER-2 and pHER-2 in tumor ([7]; oral 2×200 mg/kg/day for three days): decreased only partially
degradation of Akt, pAkt, Raf-1, pRaf, cdk6, pRb in tumor ([7]; oral 2×200 mg/kg/day for three days, 24 h after last dosing): to levels comparable to those obtained with 17-AAG
